From publication PMC5011342, “A high throughput drug screening assay to identify compounds that promote oligodendrocyte differentiation using acutely dissociated and purified oligodendrocyte precursor cells” (BMC Research Notes, 2016)
Like-named read-outs stand apart in the source and are kept apart here.

What was measured:
[1] = tested on: acutely dissociated and purified rat OPCs; assay: Acute OL differentiation assay (MBP expression/cell, immunofluorescent image quantification); assay type: cell-based
Procedure, shortened: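 Oligodendrocyte precursor cells were enriched from P6-P7 Sprague–Dawley rat brains by immunopanning (RAN-2 and GalC depletion, O4 selection), plated at 5000 cells/well in serum-free, mitogen-free differentiation media on PDL/laminin 96-well view plates, centrifuged at 200×g, and pre-incubated 1–2 h before test compounds were added in quadruplicate. On DIV4, cells were fixed, stained for MBP and DAPI, imaged automatically, and MBP expression per cell was quantified.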

[2] = tested on: expanded OPCs; assay: cells; settings: for viability at 0.1 µM / viability at 1 µM / viability at 10 µM: Rattus norvegicus, 72 h
Procedure, shortened: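 Expanded OPCs seeded at 10,000 cells/well in differentiation media, then exposed to NCC library compounds at 10, 1 and 0.1 µM (quadruplicate, 0.1% DMSO) for three days. Viability read as alamarBlue fluorescence (560/590 nm) after 4 h at 37 °C; tunicamycin 5 ng/ml served as toxicity control.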

[3] = Rattus norvegicus, test compound at 2 uM, NCC library screen, sheet "All OLga data", relative to quetiapine, read-out: 2 uM (% Quet)
[4] = Rattus norvegicus, test compound at 10 uM, NCC library screen, sheet "All OLga data", relative to quetiapine, read-out: 10 uM (% Quet)
[5] = read-out: 0.1 µM (% DMSO), alamarBlue viability, NCC library compound at 0.1 µM, sheet "All Tox data"
[6] = read-out: 1 µM (% DMSO), alamarBlue viability, NCC library compound at 1 µM, sheet "All Tox data"
[7] = read-out: 10 µM (% DMSO), alamarBlue viability, NCC library compound at 10 µM, sheet "All Tox data"
[8] = Rattus norvegicus, 0.4 uM test compound, relative to quetiapine, sheet "All OLga data", read-out: OL differentiation, 0.4 uM (% Quet)
[9] = read-out: 0.1 µM (% DMSO), alamarBlue viability of expanded OPCs, compound at 0.1 µM, sheet All Tox data
[10] = read-out: 1 µM (% DMSO), alamarBlue viability of expanded OPCs, compound at 1 µM, sheet All Tox data
[11] = read-out: 10 µM (% DMSO), alamarBlue viability of expanded OPCs, compound at 10 µM, sheet All Tox data
[12] = Rattus norvegicus, 2 uM test compound, relative to quetiapine, sheet "All OLga data", read-out: OL differentiation, 2 uM (% Quet)
[13] = Rattus norvegicus, 10 uM test compound, relative to quetiapine, sheet "All OLga data", read-out: OL differentiation, 10 uM (% Quet)

With c1ccc2[nH]c(-c3cscn3)nc2c1 [Thiabendazole] the activation at 2 µM [1, 3] was 14.9%, the activation at 10 µM [1, 4] was 36.7% and the viability at 0.1 µM [2, 5] was 98%. The viability at 1 µM [2, 6] was 97.1% and the viability at 10 µM [2, 7] was 109%.
Molecule COc1cc2c(cc1OC)[C@@]13CCN4CC5=CCO[C@H]6CC(=O)N2[C@H]1[C@H]6[C@H]5C[C@H]43 [Brucine] has an activation at 0.4 µM ([1]; Rattus norvegicus, test compound at 0.4 uM, NCC library screen, sheet "All OLga data", relative to quetiapine, read-out: 0.4 uM (% Quet)) of -2.6%, an activation at 2 µM [1, 3] of 11% and a viability at 0.1 µM [2, 5] of 93%. For the same molecule, the viability at 1 µM [2, 6] was 79.4% and the viability at 10 µM [2, 7] was 46.6%.
C[C@@H]1C[C@H]2[C@@H]3CCC4=CC(=O)C=C[C@]4(C)[C@@]3(F)[C@@H](O)C[C@]2(C)[C@@]1(O)C(=O)CO [Dexamethazone] was tested, and the “2 uM (% Quet)” value ([1]; test compound at 2 uM, MBP expression relative to quetiapine, NCC library screen, sheet "All OLga data") was -1.3 % Quet, the “10 uM (% Quet)” value ([1]; test compound at 10 uM, MBP expression relative to quetiapine, NCC library screen, sheet "All OLga data") was -8.3 % Quet and the “0.1 µM (% DMSO)” value ([2]; alamarBlue viability of expanded OPCs, compound at 0.1 µM, relative to DMSO control) was 115.8 % DMSO. For the same molecule, the “1 µM (% DMSO)” value ([2]; alamarBlue viability of expanded OPCs, compound at 1 µM, relative to DMSO control) was 108.1 % DMSO and the “10 µM (% DMSO)” value ([2]; alamarBlue viability of expanded OPCs, compound at 10 µM, relative to DMSO control) was 98.4 % DMSO.
For CCS(=O)(=O)CCn1c([N+](=O)[O-])cnc1C [Tinidazole], the activation at 2 µM [1, 3] was -10.8%, the activation at 10 µM [1, 4] was 10.4% and the viability at 0.1 µM [2, 5] was 91.7%. It also gave a viability at 1 µM [2, 6] of 95.3% and a viability at 10 µM [2, 7] of 97.1%.
CN(C)CCOC(c1ccc(Cl)cc1)c1ccccn1 (stereo not shown) [Carbinoxamine] gave an activation at 2 µM [1, 3] of 7.4%, an activation at 10 µM [1, 4] of -28.8% and a viability at 0.1 µM [2, 5] of 92.8%. For the same molecule, the viability at 1 µM [2, 6] was 73.8% and the viability at 10 µM [2, 7] was 57.6%.
CC[C@@]1(O)C(=O)OCc2c1cc1n(c2=O)Cc2cc3c(CN(C)C)c(O)ccc3nc2-1 [Topotecan] showed an activation at 0.08 µM ([1]; Rattus norvegicus, 0.08 uM test compound, relative to quetiapine, sheet "All OLga data", read-out: OL differentiation, 0.08 uM (% Quet)) of -46.4%, an activation at 0.4 µM [1, 8] of -124% and a viability at 0.1 µM [2, 9] of 72%. The viability at 1 µM [2, 10] was 49.7% and the viability at 10 µM [2, 11] was 12.3%.
CC1(C)C[C@@H]1C(=O)N/C(=C\CCCCSC[C@H](N)C(=O)O)C(=O)O [Cilastatin] was tested, and the activation at 2 µM ([1]; Rattus norvegicus, read-out: OL differentiation, 2 uM (% Quet)) was -1.9%, the activation at 10 µM ([1]; Rattus norvegicus, read-out: OL differentiation, 10 uM (% Quet)) was -4.3% and the viability at 0.1 µM ([2]; read-out: 0.1 µM (% DMSO)) was 96.8%. The viability at 1 µM ([2]; read-out: 1 µM (% DMSO)) was 95.5% and the viability at 10 µM ([2]; read-out: 10 µM (% DMSO)) was 89.5%.
With Nc1nnc(-c2cccc(Cl)c2Cl)c(N)n1 [Lamotrigine] the activation at 2 µM [1, 12] was -14.6%, the activation at 10 µM [1, 13] was -8.7% and the viability at 0.1 µM [2, 9] was 94.8%. For the same molecule, the viability at 1 µM [2, 10] was 104% and the viability at 10 µM [2, 11] was 99.5%.
With Cc1nc2n(c(=O)c1CCN1CCC(c3noc4cc(F)ccc34)CC1)CCCC2 [Risperidone] the activation at 2 µM [1, 12] was 2.4%, the activation at 10 µM [1, 13] was 31.6% and the viability at 0.1 µM [2, 9] was 92.3%. It also gave a viability at 1 µM [2, 10] of 99.8% and a viability at 10 µM [2, 11] of 90.2%.
Molecule C[N+]1(C)CCN(c2ccccc2)CC1 [DMPP, dimethylphenylpiperazinium, reference compound] has an activation at 2 µM [1, 12] of 40.6%, an activation at 10 µM [1, 13] of 54.3% and an EC50 ([1]; Rattus norvegicus, average EC50 for induction of OL differentiation from independent biological replicates, eight concentrations) of 13 µM. For the same molecule, the “hit in OL differentiation assay, MRF-TMC” value ([1]; ● = confirmed hit in this paper's assay) was “●”, the viability at 0.1 µM [2, 5] was 101% and the viability at 1 µM [2, 6] was 89.5%. For the same molecule, the viability at 10 µM [2, 7] was 111%.
Molecule N#Cc1ccc(C(c2ccc(C#N)cc2)n2cncn2)cc1 [letrozole] has an activation at 2 µM [1, 12] of 1.2%, an activation at 10 µM [1, 13] of -4.8% and a viability at 0.1 µM [2, 9] of 92%. It also gave a viability at 1 µM [2, 10] of 99.2% and a viability at 10 µM [2, 11] of 101%.
O=C1Nc2ccccc2/C1=C1/Nc2ccccc2C1=O [Indirubin] was tested, and the activation at 0.4 µM [1, 8] was 26%, the activation at 2 µM [1, 12] was 108% and the viability at 0.1 µM [2, 5] was 97.6%. For the same molecule, the viability at 1 µM [2, 6] was 78.2% and the viability at 10 µM [2, 7] was 46.3%.
In the case of CC1CCN(CCCC(=O)c2ccc(F)cc2)CC1.Cl [Melperone hydrochloride], the “2 uM (% Quet)” value ([1]; test compound at 2 uM, NCC library screen, sheet "All OLga data", relative to quetiapine) is reported as 39.6 % Quet, the “10 uM (% Quet)” value ([1]; test compound at 10 uM, NCC library screen, sheet "All OLga data", relative to quetiapine) is reported as 43.4 % Quet and the “0.1 µM (% DMSO)” value ([2]; alamarBlue viability, NCC library compound at 0.1 µM, sheet "All Tox data") is reported as 105.5 % DMSO. The “1 µM (% DMSO)” value ([2]; alamarBlue viability, NCC library compound at 1 µM, sheet "All Tox data") was 130.9 % DMSO and the “10 µM (% DMSO)” value ([2]; alamarBlue viability, NCC library compound at 10 µM, sheet "All Tox data") was 151.7 % DMSO.
